Source: ChEMBL document CHEMBL5131453, “Discovery and structure-based design of a new series of potent and selective PPARδ agonists utilizing a virtual screening method” (Bioorg Med Chem Lett, 2022)
Converted amounts (≈) assume the structure as drawn.

Legend:
[1] = target: T1, Peroxisome proliferator-activated receptor alpha (Homo sapiens) (UniProt Q07869); test: Transactivation of Gal4-fused human PPARalpha expressed in CHO cells co expressing pG5-Luc reporter at 1 uM; assay type: cell-based; details: filed as agonist
T1 sequence (whole entry): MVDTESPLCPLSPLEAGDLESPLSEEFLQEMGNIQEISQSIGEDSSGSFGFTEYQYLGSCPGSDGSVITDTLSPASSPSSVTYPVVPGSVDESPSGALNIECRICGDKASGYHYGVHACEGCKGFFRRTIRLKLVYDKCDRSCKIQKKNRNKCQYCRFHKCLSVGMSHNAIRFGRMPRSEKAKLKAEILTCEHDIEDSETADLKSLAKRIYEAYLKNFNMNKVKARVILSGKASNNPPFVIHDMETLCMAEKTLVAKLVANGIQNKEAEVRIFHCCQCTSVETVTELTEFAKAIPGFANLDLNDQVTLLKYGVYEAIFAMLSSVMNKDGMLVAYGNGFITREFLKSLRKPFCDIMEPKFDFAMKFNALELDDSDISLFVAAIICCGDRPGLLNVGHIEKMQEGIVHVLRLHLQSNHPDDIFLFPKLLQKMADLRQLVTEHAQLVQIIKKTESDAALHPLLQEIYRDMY

[2] = target: T2, Peroxisome proliferator-activated receptor delta (Homo sapiens) (UniProt Q03181); test: Transactivation of Gal4-fused human PPARdelta expressed in CHO cells co expressing pG5-Luc reporter at 10 uM; assay type: cell-based; details: filed as agonist
T2 sequence (whole entry): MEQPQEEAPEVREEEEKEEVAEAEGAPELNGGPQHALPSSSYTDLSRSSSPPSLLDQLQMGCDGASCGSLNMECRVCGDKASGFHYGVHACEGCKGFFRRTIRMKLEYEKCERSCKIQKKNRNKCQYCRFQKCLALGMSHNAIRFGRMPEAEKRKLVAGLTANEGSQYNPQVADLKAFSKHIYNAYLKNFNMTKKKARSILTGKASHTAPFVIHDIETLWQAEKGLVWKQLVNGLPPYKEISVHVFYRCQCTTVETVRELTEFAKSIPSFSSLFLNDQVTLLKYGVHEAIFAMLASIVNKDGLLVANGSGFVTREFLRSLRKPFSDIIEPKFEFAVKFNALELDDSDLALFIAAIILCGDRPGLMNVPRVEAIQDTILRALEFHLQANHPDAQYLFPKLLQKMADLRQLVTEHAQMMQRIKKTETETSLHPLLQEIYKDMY

[3] = target: T3, Peroxisome proliferator-activated receptor gamma (Homo sapiens) (UniProt P37231); test: Transactivation of Gal4-fused human PPARgamma expressed in CHO cells co expressing pG5-Luc reporter at 10 uM; assay type: cell-based; details: filed as agonist
T3 sequence (whole entry): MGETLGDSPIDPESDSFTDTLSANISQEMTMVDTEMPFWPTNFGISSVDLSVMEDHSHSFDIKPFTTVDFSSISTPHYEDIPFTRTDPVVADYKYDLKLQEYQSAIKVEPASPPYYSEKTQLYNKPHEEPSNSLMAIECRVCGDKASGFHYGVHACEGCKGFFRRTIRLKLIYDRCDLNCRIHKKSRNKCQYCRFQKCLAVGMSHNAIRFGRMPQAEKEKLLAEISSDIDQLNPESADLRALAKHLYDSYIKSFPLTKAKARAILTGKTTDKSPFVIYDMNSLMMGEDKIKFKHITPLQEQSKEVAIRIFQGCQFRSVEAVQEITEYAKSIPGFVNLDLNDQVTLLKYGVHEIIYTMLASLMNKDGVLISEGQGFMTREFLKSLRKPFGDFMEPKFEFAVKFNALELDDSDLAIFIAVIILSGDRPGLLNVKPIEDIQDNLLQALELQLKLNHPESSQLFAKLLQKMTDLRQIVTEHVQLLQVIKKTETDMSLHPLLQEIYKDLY

[4] = target: T4, Peroxisome proliferator-activated receptor delta (Mus musculus) (UniProt P35396); test: Transactivation of Gal4-fused mouse PPARdelta expressed in CHO cells co expressing pG5-Luc reporter at 1 uM; assay type: cell-based; details: filed as agonist
T4 sequence (whole entry): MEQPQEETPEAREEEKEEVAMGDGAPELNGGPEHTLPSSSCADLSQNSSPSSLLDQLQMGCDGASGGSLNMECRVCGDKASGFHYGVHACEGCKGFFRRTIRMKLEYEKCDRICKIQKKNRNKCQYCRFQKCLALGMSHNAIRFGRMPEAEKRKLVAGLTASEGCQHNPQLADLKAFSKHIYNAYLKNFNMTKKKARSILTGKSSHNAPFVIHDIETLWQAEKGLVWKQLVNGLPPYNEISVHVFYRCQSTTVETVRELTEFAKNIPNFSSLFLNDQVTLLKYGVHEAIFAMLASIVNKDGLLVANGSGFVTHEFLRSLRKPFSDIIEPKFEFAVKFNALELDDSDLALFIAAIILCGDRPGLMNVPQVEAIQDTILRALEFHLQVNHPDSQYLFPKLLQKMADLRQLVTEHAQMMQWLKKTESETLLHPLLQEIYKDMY

[5] = target: T1, Peroxisome proliferator-activated receptor alpha (Homo sapiens); test: Transactivation of Gal4-fused human PPARalpha expressed in CHO cells co expressing pG5-Luc reporter at 10 uM; assay type: cell-based; details: filed as agonist
[6] = target: T5, Peroxisome proliferator-activated receptor delta (Mus musculus, UniProt P35396); test: Transactivation of Gal4-fused mouse PPARdelta expressed in CHO cells co expressing pG5-Luc reporter; assay type: cell-based
T5 sequence (P35396 whole entry): T4 sequence (whole entry)

[7] = target: T6, Peroxisome proliferator-activated receptor gamma (Homo sapiens, UniProt P37231); assay type: cell-based, CHO
T6 sequence (P37231 whole entry): T3 sequence (whole entry)

[8] = target: T7, Peroxisome proliferator-activated receptor delta (Homo sapiens, UniProt Q03181); test: Transactivation of Gal4-fused human PPARdelta expressed in CHO cells co expressing pG5-Luc reporter; assay type: cell-based
T7 sequence (Q03181 whole entry): T2 sequence (whole entry)

[9] = target: T8, Peroxisome proliferator-activated receptor alpha (Homo sapiens, UniProt Q07869); test: Transactivation of Gal4-fused human PPARalpha expressed in CHO cells co expressing pG5-Luc reporter; assay type: cell-based
T8 sequence (Q07869 whole entry): T1 sequence (whole entry)

Mus musculus [10] = test: Anti-diabetic activity in […] mouse assessed as glucose level at 30 mg/kg, po for 8 days (reference value: 737 +/- 52 mg/dL); assay type: functional; details: time 8 day
Mus musculus [11] = test: Anti-obesity activity in […] mouse assessed as HDL cholesterol level at 30 mg/kg, po for 8 days (reference value: 103.5 +/- 3.2 %); assay type: functional; details: time 8 day
Mus musculus [12] = test: Anti-obesity activity in […] mouse assessed as TG level at 30 mg/kg, po for 8 days (reference value: 162.8 +/- 21.4 mg/dL); assay type: functional; details: time 8 day
[13] = Metabolic stability in rat liver microsomes assessed as parent compound remaining after 0.5 hrs relative to control; assay type: ADME, Microsome; details: read-out: Stability
CYP2D6 = CYP2D6 (Homo sapiens, UniProt P10635); test: Inhibition of CYP2D6 (unknown origin) assessed as residual activity at 20 uM by enzyme assay relative to control; assay type: ADME; details: read-out: Activity
Homo sapiens = species: Homo sapiens; test: Selectivity index, ratio of EC50 for human PPARalpha to EC50 for human PPARdelta
CYP3A4 = CYP3A4 (Homo sapiens, UniProt P08684); test: Inhibition of CYP3A4 (unknown origin) assessed as residual activity at 20 uM by enzyme assay relative to control; assay type: ADME; details: read-out: Activity
[14] = Half life in rat dosed as mixture; assay type: ADME, organism-based; details: in vivo
CYP1A2 = target: T9, CYP1A2 (Homo sapiens, UniProt P05177); test: Inhibition of CYP1A2 (unknown origin) assessed as residual activity at 20 uM by enzyme assay relative to control; assay type: ADME; details: read-out: Activity
T9 sequence (P05177 whole entry): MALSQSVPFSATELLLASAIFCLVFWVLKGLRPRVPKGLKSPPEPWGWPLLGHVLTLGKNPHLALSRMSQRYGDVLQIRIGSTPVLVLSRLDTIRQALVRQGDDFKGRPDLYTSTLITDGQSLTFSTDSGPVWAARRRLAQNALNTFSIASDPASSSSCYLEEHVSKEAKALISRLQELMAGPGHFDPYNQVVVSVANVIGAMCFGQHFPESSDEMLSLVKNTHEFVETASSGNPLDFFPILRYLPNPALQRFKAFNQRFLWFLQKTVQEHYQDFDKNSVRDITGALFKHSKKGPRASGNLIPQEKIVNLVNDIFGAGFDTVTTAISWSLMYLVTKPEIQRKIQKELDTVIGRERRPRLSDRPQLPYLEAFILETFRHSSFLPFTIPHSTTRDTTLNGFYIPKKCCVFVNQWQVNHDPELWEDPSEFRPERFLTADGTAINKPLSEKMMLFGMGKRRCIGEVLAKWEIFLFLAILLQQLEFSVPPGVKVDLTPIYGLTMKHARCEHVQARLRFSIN

[15] = Total clearance in rat dosed as mixture; assay type: ADME, organism-based; details: in vivo
[16] = Kinetic solubility of compound at pH 6.8 by HPLC analysis; assay type: physicochemical; details: buffer, read-out: Kinetic_solubility
[17] = Metabolic stability in human liver microsomes assessed as parent compound remaining after 0.5 hrs relative to control; assay type: ADME, Microsome; details: read-out: Stability
[18] = target: PPAR delta/gamma (Homo sapiens) (UniProt P37231+Q03181); test: Selectivity index, ratio of EC50 for human PPAgamma to EC50 for human PPARdelta; assay type: protein assay
CYP2C9 = CYP2C9 (Homo sapiens, UniProt P11712); test: Inhibition of CYP2C9 (unknown origin) assessed as residual activity at 20 uM by enzyme assay relative to control; assay type: ADME; details: read-out: Activity
CYP2C9, sequence (P11712 whole entry): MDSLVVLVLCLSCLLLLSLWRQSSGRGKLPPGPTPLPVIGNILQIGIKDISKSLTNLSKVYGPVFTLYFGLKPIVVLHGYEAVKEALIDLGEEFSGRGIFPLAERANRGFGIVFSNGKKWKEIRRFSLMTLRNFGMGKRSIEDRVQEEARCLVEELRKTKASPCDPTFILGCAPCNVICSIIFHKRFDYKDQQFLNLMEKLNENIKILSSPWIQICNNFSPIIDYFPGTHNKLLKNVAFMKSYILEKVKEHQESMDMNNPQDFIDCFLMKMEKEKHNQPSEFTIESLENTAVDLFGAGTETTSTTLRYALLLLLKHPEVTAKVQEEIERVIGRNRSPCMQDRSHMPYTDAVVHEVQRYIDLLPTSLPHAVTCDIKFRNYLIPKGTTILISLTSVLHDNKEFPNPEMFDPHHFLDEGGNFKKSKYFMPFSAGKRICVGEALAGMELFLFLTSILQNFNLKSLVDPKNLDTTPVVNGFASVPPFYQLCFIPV

CYP3A4, sequence (P08684 whole entry): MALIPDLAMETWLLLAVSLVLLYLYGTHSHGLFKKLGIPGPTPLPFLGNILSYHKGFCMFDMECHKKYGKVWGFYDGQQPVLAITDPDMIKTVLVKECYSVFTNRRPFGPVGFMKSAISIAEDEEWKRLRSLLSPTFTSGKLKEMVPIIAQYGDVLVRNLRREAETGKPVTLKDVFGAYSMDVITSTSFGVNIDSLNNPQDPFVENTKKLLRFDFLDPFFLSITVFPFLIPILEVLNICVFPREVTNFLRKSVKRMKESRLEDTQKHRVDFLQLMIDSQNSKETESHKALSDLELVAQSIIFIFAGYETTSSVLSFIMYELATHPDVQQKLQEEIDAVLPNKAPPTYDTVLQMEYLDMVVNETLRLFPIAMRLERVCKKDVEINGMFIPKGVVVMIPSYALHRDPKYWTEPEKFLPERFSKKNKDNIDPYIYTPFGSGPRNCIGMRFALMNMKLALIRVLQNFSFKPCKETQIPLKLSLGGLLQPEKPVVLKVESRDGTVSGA
CYP2D6, sequence (P10635 whole entry): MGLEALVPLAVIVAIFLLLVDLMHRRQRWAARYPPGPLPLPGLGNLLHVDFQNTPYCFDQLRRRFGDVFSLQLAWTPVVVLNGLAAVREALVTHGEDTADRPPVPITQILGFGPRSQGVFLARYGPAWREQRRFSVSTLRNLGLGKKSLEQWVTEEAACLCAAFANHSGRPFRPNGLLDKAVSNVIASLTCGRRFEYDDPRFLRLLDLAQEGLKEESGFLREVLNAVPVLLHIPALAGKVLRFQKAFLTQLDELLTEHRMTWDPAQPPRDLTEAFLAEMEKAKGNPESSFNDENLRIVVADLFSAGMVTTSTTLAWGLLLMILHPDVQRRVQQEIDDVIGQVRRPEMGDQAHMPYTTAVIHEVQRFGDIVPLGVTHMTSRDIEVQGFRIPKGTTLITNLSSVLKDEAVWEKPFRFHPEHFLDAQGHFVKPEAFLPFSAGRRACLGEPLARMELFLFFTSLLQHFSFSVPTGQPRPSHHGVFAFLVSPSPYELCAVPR

SMILES | fold change (FC) [1] | fold change (FC) [4] | EC50 [6] | EC50 [7] | EC50 [8] | EC50 [9] | also measured
CN(CCOc1ccc(CC2SC(=O)NC2=O)cc1)c1ccccn1 (stereo not drawn) | 1.2 |  |  |  |  |  | 
O=C(O)CCC(=O)OCCC1CCN(c2nc3ccc(Cl)cc3s2)CC1 | 2.4 | 2 |  |  |  |  | fold change (FC) [2]: 11; fold change (FC) [3]: 1.5; fold change (FC) [5]: 8.6
O=C(O)c1cccc(OCCC2CCN(c3nc4ccc(Cl)cc4s3)CC2)c1 | 7.5 | 1.4 |  |  |  |  | 
Cc1cc(SCc2sc(-c3ccc(C(F)(F)F)cc3)nc2C)ccc1OCC(=O)O [GW501516] | 3.1 | 30.4 |  |  |  |  | Activity (Mus musculus [10]): 493 mg/dL; Activity (Mus musculus [11]): 132.9%; Activity (Mus musculus [12]): 82.4 mg/dL
O=C(O)CCC(=O)OCCN1CCN(c2nc3ccc(Cl)cc3s2)CC1 | 1.5 |  |  |  |  |  | fold change (FC) [2]: 2.8; fold change (FC) [3]: 1.5; fold change (FC) [5]: 3
O=C(O)Cc1cccc(OCC2CCN(c3nc4ccc(Cl)cc4s3)CC2)c1 | 2.5 | 7 |  |  |  |  | 

The next lines start with results.

fold change (FC) [1] | fold change (FC) [4] | EC50 [6] | EC50 [7] | EC50 [8] | EC50 [9] | SMILES | also measured
 |  | 830 nM | 980 nM | 110 nM |  | Cc1ccc(OCCC2CCN(c3nc4ccc(Cl)cc4s3)CC2)cc1CC(=O)O | 
 |  | 151 nM | 1070 nM | 92.9 nM | 955 nM | Cc1cc(CC(=O)O)cc(OCCC2CCN(c3nc4ccc(Cl)cc4s3)CC2)c1 | 
 |  | 330 nM | 680 nM | 120 nM | 3600 nM | CCc1ccc(CC(=O)O)cc1OCCC1CCN(c2nc3ccc(Cl)cc3s2)CC1 | 
1.5 | 2.2 |  |  |  |  | O=C(O)CCc1cccc(OCCC2CCN(c3nc4ccc(Cl)cc4s3)CC2)c1 | 
 |  | 1060 nM |  | 263 nM | 2220 nM | O=C(O)Cc1cccc(OCCC2CCN(c3nc4ccc(Cl)cc4s3)CC2)c1 | 
 |  | 71.2 nM | 542 nM | 16.4 nM | 637 nM | Cc1ccc(CC(=O)O)cc1OCCC1CCN(c2nc3ccc(Cl)cc3s2)CC1 | Activity (Mus musculus [10]): 415 mg/dL; Activity (Mus musculus [11]): 118%; remaining at 0.5 h [13]: 101%; activity at 20 µM (CYP2D6): 94%; Ratio EC50 (Homo sapiens): 38; activity at 20 µM (CYP3A4): > 99%; half-life [14]: 1.8 h; activity at 20 µM (CYP1A2): 92%; clearance [15]: 14.3 mL/min/kg; solubility kinetic [16]: 21.8 µM (≈ 9.7 µg/mL); remaining at 0.5 h [17]: 96%; Ratio EC50 [18]: 33; activity at 20 µM (CYP2C9): 58%; Activity (Mus musculus [12]): 63.9 mg/dL
